Among the data in ChEMBL document CHEMBL1131752, “Binding and catalysis by yeast aldose reductase: a substrate-analog approach with new aldose derivatives” (Bioorg Med Chem Lett, 1999) are k cat/Km and k cat values, retold here.

For experiment [1], the system named is Xylose reductase (Candida tenuis). Description: Ratio of catalytic constant (kcat)/Kinetic constant(Km).
Experiment [2] shares this test system. Description: The catalytic constant(kcat) for the NADH-catalyzed by aldose reductase from candida tenuis. The note with it: Yamadazyma tenuis.

`OC1O[C@H](CF)[C@H](O)[C@H]1O` (some centres undefined): in experiment [1], the k cat/Km amounted to 34300 M⁻¹ s⁻¹. In experiment [2], the k cat was determined as 22.3 s⁻¹.
Taken in the same sequence, the figures for `OC1OC(C(F)CF)C(O)C1O` (centres undefined) were 15300 M⁻¹ s⁻¹ and 21.4 s⁻¹.
With `[N-]=[N+]=NC[C@H]1OC(O)[C@H](O)[C@H]1O` (some centres undefined), in experiment [1], the k cat/Km turned out to be 1690 M⁻¹ s⁻¹.
Regarding `CC[C@H]1OC(O)[C@H](O)[C@H]1O` (some centres undefined), the k cat/Km in experiment [1] is 38900 M⁻¹ s⁻¹. This compound gave a k cat in experiment [2] of 20.6 s⁻¹.
As for `C[C@H]1OC(O)[C@H](O)[C@H]1O` (some centres undefined), the k cat/Km in experiment [1] turned out to be 23200 M⁻¹ s⁻¹. This compound also showed a k cat in experiment [2] of 21.6 s⁻¹.
